Source: patent EP4748839A1 (CSPC Zhongqi Pharmaceutical Technology (Shijiazhuang) Co., …, priority 2023, dated 2025)

Biological target: T1, GLP-1R (Homo sapiens, UniProt P43220)
T1 construct: expressed in transfected cells
Assay: GLP-1R agonistic effect in GLP1R-cAmp-Luc cells (luciferase reporter; titled 'Enzymatic assay')
Assay type: cell-based
Conditions: for EC50: 4 hours incubation, firefly luciferin signal; for EC50 of Positive reference / EC50 of Compound of the Present Application: Positive reference is PF-06882961
Procedure: The GLP-1R agonistic effects of the test compounds were determined using GLP1R-cAmp-Luc cells. 1) The test compound was dissolved in DMSO and mixed well until the test compound was completely dissolved. The test compounds were dissolved in DMSO to prepare 10 mM stock solutions. All compounds were diluted with DMEM medium (high sugar, Puromycin^+, Hygromycin B^+) to an initial concentration of 1250 nM, and then subjected to 5-fold serial dilution to a total of 7 concentration gradients. The GLP1R-cAmp-Luc cells were seeded in white-wall 96-well cell culture plates at a density of 1×10^5/mL, with 90 µL cell suspension per well; the test compound at each of the 7 concentration gradients was added at 10 µL per well, with the actual initial working concentration of 125 nM; and the cells were placed in a 37 °C, 5% CO2 cell incubator for 4 hours; 2) 100 µL of luciferin potassium salt solution diluted to 300 µg/mL in PBS was added to each well at a working concentration of 150 µg/mL and incubated at room temperature for 30 minutes; 3) fluorescence signals of firefly luciferin were measured with a multifunctional microplate reader (PerkinElmer, Nivo); and the fluorescence values were processed using GraphPad Prism software to calculate EC50 values.

T1 sequence (P43220 24-463, species assumed): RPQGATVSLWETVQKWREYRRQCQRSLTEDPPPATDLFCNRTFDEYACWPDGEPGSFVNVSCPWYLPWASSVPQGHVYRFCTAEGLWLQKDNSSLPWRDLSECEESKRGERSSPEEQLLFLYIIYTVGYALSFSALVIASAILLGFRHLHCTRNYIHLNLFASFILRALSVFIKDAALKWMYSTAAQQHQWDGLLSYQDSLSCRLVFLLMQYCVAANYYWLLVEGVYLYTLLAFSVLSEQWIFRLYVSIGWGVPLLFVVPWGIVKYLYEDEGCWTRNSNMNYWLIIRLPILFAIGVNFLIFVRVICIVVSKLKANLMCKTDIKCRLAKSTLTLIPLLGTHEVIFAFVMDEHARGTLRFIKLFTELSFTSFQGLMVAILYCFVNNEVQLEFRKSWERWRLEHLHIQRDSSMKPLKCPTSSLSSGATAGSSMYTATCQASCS

| SMILES | EC50 [nM] | EC50 of Positive reference / EC50 of Compound of the Present Application |
| --- | --- | --- |
| COc1cc(C(=O)O)cc2c1nc(Cc1c(F)cc(-c3nc(OCc4ccc(C5COC5)cc4F)ncc3F)c3c1CCO3)n2C[C@@H]1CCO1 [Compound 128, (S)-2-((7-(5-fluoro-2-((2-fluoro-4-(oxetan-3-yl)benzyl)oxy)pyrimidin-4-yl)-5-fluoro-2,3-dihydrobenzofuran-4-yl)methyl)-4-methoxy-1-(oxetan-2-ylmethyl)-1H-benzo[d]imidazole-6-carboxylic acid] | ≤ 1 | Ratio ≥10 |
| COc1cc(C(=O)O)cc2c1nc(Cc1c(F)cc(-c3ccc(F)c(OCc4ccc(C5COC5)cc4F)n3)c3c1CCO3)n2C[C@@H]1CCO1 [Compound 126, (S)-2-((7-(5-fluoro-6-((2-fluoro-4-(oxetan-3-yl)benzyl)oxy)pyridin-2-yl)-5-fluoro-2,3-dihydrobenzofuran-4-yl)methyl)-4-methoxy-1-(oxetan-2-ylmethyl)-1H-benzo[d]imidazole-6-carboxylic acid] | ≤ 1 | Ratio ≥10 |
| O=C(O)c1ccc2nc(Cc3ccc(-c4cccc(OCc5ccc(Cl)cc5F)n4)c4c3CCC4=O)n(C[C@@H]3CCO3)c2c1 [Compound 20, (S)-2-((7-(6-((4-chloro-2-fluorobenzyl)oxy)pyridin-2-yl)-1-oxo-2,3-dihydro-1H-inden-4-yl)methyl)-1-(oxetan-2-ylmethyl)-1H-benzo[d]imidazole-6-carboxylic acid] | 1 to 5 |  |
| COc1cc(C(=O)O)cc2c1nc(Cc1c(F)cc(-c3ccc(Cl)c(OCc4ccc(Cl)cc4F)n3)c3c1CCO3)n2C[C@@H]1CCO1 [Compound 108, (S)-2-((7-(5-chloro-6-((4-chloro-2-fluorobenzyl)oxy)pyridin-2-yl)-5-fluoro-2,3-dihydrobenzofuran-4-yl)methyl)-4-methoxy-1-(oxetan-2-ylmethyl)-1H-benzo[d]imidazole-6-carboxylic acid] | 1 to 5 |  |
| COc1cc(C(=O)O)cc2c1nc(Cc1c(F)cc(-c3ccnc(OCc4ccc(C5COC5)cc4F)n3)c3c1CCO3)n2C[C@@H]1CCO1 [Compound 120, (S)-2-((7-(2-((2-fluoro-4-(oxetan-3-yl)benzyl)oxy)pyrimidin-4-yl)-5-fluoro-2,3-dihydrobenzofuran-4-yl)methyl)-4-methoxy-1-(oxetan-2-ylmethyl)-1H-benzo[d]imidazole-6-carboxylic acid] | ≤ 1 | Ratio ≥10 |
| N#CCC1(Cn2c(Cc3c(Cl)cc(-c4cccc(OCc5ccc(C#N)cc5F)n4)c4c3CCO4)nc3ccc(C(=O)O)nc32)CC1 [Compound 19, 2-((5-chloro-7-(6-((4-cyano-2-fluorobenzyl)oxy)pyridin-2-yl)-2,3-dihydrobenzofuran-4-yl)methyl)-3-((1-(cyanomethyl)cyclopropyl)methyl)-3H-imidazo[4,5-b]pyridine-5-carboxylic acid] | 1 to 5 |  |
| COc1cc(C(=O)O)cc2c1nc(Cc1c(F)cc(-c3nc(OCc4ccc(Cl)cc4OC(F)F)ncc3F)c3c1CCO3)n2C[C@@H]1CCO1 [Compound 131] | ≤ 1 | Ratio ≥10 |
| COc1cc(C(F)(F)F)ccc1COc1ccnc(-c2cc(F)c(Cc3nc4c(OC)cc(C(=O)O)cc4n3C[C@@H]3CCO3)c3c2OCC3)n1 [Compound 125, (S)-2-((7-(4-((2-methoxy-4-(trifluoromethyl)benzyl)oxy)pyrimidin-2-yl)-5-fluoro-2,3-dihydrobenzofuran-4-yl)methyl)-4-methoxy-1-(oxetan-2-ylmethyl)-1H-benzo[d]imidazole-6-carboxylic acid] | ≤ 1 | Ratio ≥10 |
| COc1cc(C(F)(F)F)ccc1COc1ncc(F)c(-c2cc(F)c(Cc3nc4c(OC)cc(C(=O)O)cc4n3C[C@@H]3CCO3)c3c2OCC3)n1 [Compound 130, (S)-2-((7-(5-fluoro-2-((2-methoxy-4-(trifluoromethyl)benzyl)oxy)pyrimidin-4-yl)-5-fluoro-2,3-dihydrobenzofuran-4-yl)methyl)-4-methoxy-1-(oxetan-2-ylmethyl)-1H-benzo[d]imidazole-6-carboxylic acid] | ≤ 1 | Ratio ≥10 |
| COc1cc(C(=O)O)cc2c1nc(Cc1c(F)cc(-c3ccnc(OCc4ccc(C)cc4F)n3)c3c1CCO3)n2C[C@@H]1CCO1 [Compound 133, (S)-2-((7-(2-((2-fluoro-4-methylbenzyl)oxy)pyrimidin-4-yl)-5-fluoro-2,3-dihydrobenzofuran-4-yl)methyl)-4-methoxy-1-(oxetan-2-ylmethyl)-1H-benzo[d]imidazole-6-carboxylic acid] | ≤ 1 | Ratio ≥10 |
| CCOc1cc(C(=O)O)cc2c1nc(Cc1c(F)cc(-c3ccnc(OCc4ccc(Cl)cc4F)n3)c3c1CCO3)n2C[C@@H]1CCO1 [Compound 121, (S)-2-((7-(2-((4-chloro-2-fluorobenzyl)oxy)pyrimidin-4-yl)-5-fluoro-2,3-dihydrobenzofuran-4-yl)methyl)-4-ethoxy-1-(oxetan-2-ylmethyl)-1H-benzo[d]imidazole-6-carboxylic acid] | ≤ 1 | Ratio ≥10 |
| COc1cc(C(=O)O)cc2c1nc(Cc1c(F)cc(-c3nccc(OCc4ccc(Cl)cc4F)n3)c3c1CCO3)n2C[C@@H]1CCO1 [Compound 117, (S)-2-((7-(4-((4-chloro-2-fluorobenzyl)oxy)pyrimidin-2-yl)-5-fluoro-2,3-dihydrobenzofuran-4-yl)methyl)-4-methoxy-1-(oxetan-2-ylmethyl)-1H-benzo[d]imidazole-6-carboxylic acid] | ≤ 1 | Ratio ≥10 |
| N#Cc1ccc(COc2cccc(-c3ccc(Cc4nc5ccc(C(=O)O)cc5n4C[C@@H]4CCO4)c4c3OCC4)n2)c(F)c1 [Compound 2, (S)-2-((7-(6-((4-cyano-2-fluorobenzyl)oxy)pyridin-2-yl)-2,3-dihydrobenzofuran-4-yl)methyl)-1-(oxetan-2-ylmethyl)-1H-benzo[d]imidazole-6-carboxylic acid] | 1 to 5 |  |
| COc1cc(C(F)(F)F)ccc1COc1cccc(-c2ccc(Cc3nc4c(OC)cc(C(=O)O)cc4n3C[C@@H]3CCO3)c3c2OCCO3)n1 [Compound 62, (S)-4-methoxy-2-((8-(6-((2-methoxy-4-(trifluoromethyl)benzyl)oxy)pyridin-2-yl)-2,3-dihydrobenzo[b][1,4]dioxan-5-yl)methyl)-1-(oxetan-2-ylmethyl)-1H-benzo[d]imidazole-6-carboxylic acid] | 1 to 5 |  |
| COc1cc(C(=O)O)cc2c1nc(Cc1c(F)cc(-c3ccnc(OCc4ccc(Cl)cc4OC(F)F)n3)c3c1CCO3)n2C[C@@H]1CCO1 [Compound 113, (S)-2-((7-(2-((2-difluoromethoxy-4-chlorobenzyl)oxy)pyrimidin-4-yl)-5-fluoro-2,3-dihydrobenzofuran-4-yl)methyl)-4-methoxy-1-(oxetan-2-ylmethyl)-1H-benzo[d]imidazole-6-carboxylic acid] | ≤ 1 | Ratio ≥10 |
| COc1cc(C(=O)O)cc2c1nc(Cc1c(F)cc(-c3ccc(F)c(OCc4ccc(Cl)cc4OC(F)F)n3)c3c1CCO3)n2C[C@@H]1CCO1 [Compound 114] | ≤ 1 | Ratio ≥10 |
